The values that follow come from ChEMBL document CHEMBL1201862, “PubChem BioAssay data set” (2004).

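Values below derive from 48-hour exposures of cells grown in 96-well plates, with endpoints linearly interpolated between the two concentrations bracketing the appropriate inhibition level. Abbreviation: GI50, concentration required for 50% inhibition of growth.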 Calls of active or inactive are those of the source. Rule as the data show it: active = GI50 up to about 1.1 µM and inactive = higher.

What all share (assay): NCI anticancer screen, dose series, 48 h
In experiment [1] the test system is NCI-H23.
The subject of experiment [2] is BT-549.
Experiment [3] relates to SK-MEL-28.
The test system of experiment [4] is MDA-MB-231.
For experiment [5], the system named is HCC 2998.
For experiment [6], the system named is UACC-62.
In experiment [7] the test system is SN12C.
The subject of experiment [8] is MCF7.
The subject of experiment [9] is SNB-19.
Experiment [10] has as its system HCT-15.
Experiment [11] concerns SNB-75.
The subject of experiment [12] is SF-295.
Experiment [13] relates to SF-268.
Experiment [14] deals with U-251.
The test system of experiment [15] is CAKI-1.
In experiment [16] the test system is LOX IMVI.

With `C=CCCCC1CCCNC1=S` (stereo not given), the GI50 in experiment [1], in experiment [2], in [3], in [4], in [5] and in [6] was > 100 µM (inactive) in each case. The GI50 in experiment [7] was > 100 µM (inactive); in [8], > 100 µM (inactive); in [9], > 100 µM (inactive); in [10], > 100 µM; in experiment [11] it was > 100 µM (inactive); in [12], > 100 µM (inactive). In addition, the GI50 in [13], in [14] and in experiment [15] was > 100 µM (inactive) throughout.
On to `CSc1n[n+](C)cc(N)c1N`, for which the GI50 in experiment [1] was > 100 µM (inactive); in experiment [2], 87.1 µM (inactive); in [3], > 100 µM (inactive); in experiment [4], > 100 µM (inactive); in experiment [5], > 100 µM (inactive); in experiment [6], > 100 µM (inactive). Besides, the GI50 in experiment [7] is > 100 µM (inactive); in experiment [8] it was > 100 µM (inactive); in experiment [9], 29.9 µM (inactive); in experiment [10] it was > 100 µM; in experiment [11] it was > 100 µM (inactive); in experiment [12], > 100 µM (inactive). The GI50 in experiment [14], in [15] and in experiment [16] was > 100 µM (inactive) each time.
In the case of `CCOC(=O)c1sc2nc(SC)nc3c2c1NC(=O)CN3c1ccc(F)cc1`, the GI50 is 50.6 µM (inactive) in experiment [1]; 19.5 µM (inactive) in experiment [2]; 8.18 µM (inactive) in experiment [3]; 26.9 µM (inactive) in [4]; 34.6 µM (inactive) in [5]; 47 µM (inactive) in [6]. The GI50 in experiment [7] is 24.6 µM (inactive); in [8] it was 87.3 µM (inactive); in experiment [9], 27.8 µM (inactive); in experiment [12] it was 20.1 µM (inactive); in experiment [13], 20 µM (inactive); in [14], 43.5 µM (inactive). In addition, the results for the GI50 in experiment [15] and in [16] were > 100 µM (inactive) and 38.3 µM (inactive), respectively.
As for `CO/C(C)=N/CCC1=CCCCC1`, the GI50 in [1] was > 100 µM (inactive); in experiment [2], > 100 µM (inactive); in experiment [3] it was > 100 µM (inactive); in [4], > 100 µM (inactive); in experiment [5] it was 52.5 µM (inactive); in [6], > 100 µM (inactive). In addition, the GI50 is > 100 µM (inactive) in experiment [8]; > 100 µM (inactive) in experiment [9]; > 100 µM in experiment [10]; > 100 µM (inactive) in experiment [11]; 55.5 µM (inactive) in [12]; > 100 µM (inactive) in experiment [13]. Also, the GI50 in experiment [14] and in experiment [15] was > 100 µM (inactive) throughout.
For `COc1ccc2c(c1)/C(=C\c1c(Cl)[nH]c3ccccc13)C(=O)N2`, the GI50 is 11.4 µM (inactive) in experiment [1]; 3.3 µM (inactive) in [2]; 3.39 µM (inactive) in experiment [3]; 4.47 µM (inactive) in [4]; 2.68 µM (inactive) in [5]; 5.16 µM (inactive) in [6]. The GI50 in experiment [7] is 7.8 µM (inactive); in [8], 3.58 µM (inactive); in experiment [9], 6.62 µM (inactive); in experiment [10], 5.14 µM; in experiment [12], 1.97 µM (inactive); in experiment [13], 4 µM (inactive). Further, the values for the GI50 in experiment [14], in [15] and in experiment [16] were 3.71 µM (inactive), 3.86 µM (inactive) and 5.09 µM (inactive), respectively.
As to `CC(=O)C1(c2ccccc2)CCCN(C)CC1` (stereo not given), the GI50 in experiment [1], in experiment [2], in experiment [3], in experiment [4], in [5] and in experiment [6] was > 100 µM (inactive) in each case. In addition, the GI50 in [8] is > 100 µM (inactive); in experiment [9] it was > 100 µM (inactive); in experiment [10], > 100 µM; in experiment [11], > 100 µM (inactive); in experiment [12] it was > 100 µM (inactive); in [14], > 100 µM (inactive). In addition, the GI50 in [15] and in [16] was > 100 µM (inactive) each time.
Consider `COc1cc([C@@]23OC[C@@H]4[C@@H](OC[C@@H]42)c2cc4c(cc23)OCO4)cc(OC)c1OC`, for which the GI50 in experiment [1] was < 0.01 µM (active); in experiment [2], < 0.0304 µM (active); in experiment [3], 23.5 µM (inactive); in experiment [4], < 0.01 µM (active); in experiment [5] it was < 0.01 µM (active); in [6], < 0.01 µM (active). Also, the GI50 in experiment [8] was < 0.01 µM (active); in experiment [9], < 0.01 µM (active); in [10], < 0.01 µM; in experiment [11] it was < 0.01 µM (active); in [12], < 0.01 µM (active); in [13] it was 0.0851 µM (active). Besides, the GI50 was < 0.01 µM (active) in experiment [14], < 0.0157 µM (active) in [15] and < 0.01 µM (active) in experiment [16].
With `COC(=O)c1cc(OS(=O)(=O)C(F)(F)F)c(=O)n2c1CCCC2`, the GI50 is > 100 µM (inactive) in experiment [1]; > 100 µM (inactive) in [2]; > 100 µM (inactive) in experiment [3]; > 100 µM (inactive) in experiment [4]; 86.3 µM (inactive) in experiment [6]; > 100 µM (inactive) in experiment [7]. The GI50 in [8] was > 100 µM (inactive); in experiment [9] it was > 100 µM (inactive); in experiment [10] it was > 100 µM; in [11] it was > 100 µM (inactive); in experiment [12], > 100 µM (inactive); in experiment [13], > 100 µM (inactive). The GI50 in [14], in experiment [15] and in experiment [16] was > 100 µM (inactive) throughout.
On to `CO/C(=N\N=C(/c1ccccc1)C(F)(F)F)c1ccncc1`, for which the GI50 in experiment [1] is 36.2 µM (inactive); in [2] it was 31.8 µM (inactive); in experiment [3], 57.7 µM (inactive); in experiment [4] it was 39.3 µM (inactive); in experiment [6] it was 27.5 µM (inactive); in experiment [7], 66.8 µM (inactive). Further, the GI50 in experiment [8] was 38.6 µM (inactive); in experiment [9] it was > 100 µM (inactive); in [10], 27.5 µM; in experiment [11], 34.9 µM (inactive); in [12], 48.6 µM (inactive); in experiment [14] it was 48.4 µM (inactive). Further, the GI50 in [15] was 45 µM (inactive).
As to `O=C(/C=C/c1ccc2c(c1)OCO2)Cc1nc2ccccc2[nH]c1=O`, the GI50 in experiment [1] was 29.8 µM (inactive); in experiment [2] it was 43.7 µM (inactive); in [3] it was 16.4 µM (inactive); in experiment [4], 20.2 µM (inactive); in experiment [5], 26.5 µM (inactive); in experiment [6] it was 6.76 µM (inactive). The GI50 in [7] was 24.1 µM (inactive); in experiment [8] it was 33.9 µM (inactive); in experiment [9], 24.2 µM (inactive); in experiment [10] it was 8.95 µM; in [12] it was 17.4 µM (inactive); in experiment [13] it was 18.4 µM (inactive). In addition, the GI50 is 16.8 µM (inactive) in experiment [14], 16.8 µM (inactive) in [15] and 3.52 µM (inactive) in experiment [16].
Take `CCC(C#N)NCc1cccc(CNC(C#N)CC)c1` (stereo not given): the GI50 in [1], in experiment [2], in experiment [3], in experiment [4], in [5] and in experiment [6] was > 100 µM (inactive) each time. Besides, the GI50 was > 100 µM (inactive) in experiment [7]; > 100 µM (inactive) in experiment [8]; > 100 µM (inactive) in experiment [9]; > 100 µM in [10]; 19.5 µM (inactive) in [12]; > 100 µM (inactive) in experiment [13]. In addition, the GI50 in [14], in experiment [15] and in experiment [16] was > 100 µM (inactive) in each case.
Take `Cc1occc1/C(S)=N\c1ccc(Cl)c(COC(C)(C)C)c1`: the GI50 in [1] was 16.4 µM (inactive); in experiment [2], 17.6 µM (inactive); in [3] it was 16.5 µM (inactive); in [4] it was 17.1 µM (inactive); in [5] it was 18.2 µM (inactive); in experiment [6] it was 14.6 µM (inactive). For the same compound, the GI50 in [7] was 14.4 µM (inactive); in experiment [8], 17.1 µM (inactive); in experiment [9] it was 20.9 µM (inactive); in experiment [10] it was 17.2 µM; in experiment [12], 14.8 µM (inactive); in experiment [13], 17.9 µM (inactive). Also, the results for the GI50 in [14], in experiment [15] and in [16] were 15.6 µM (inactive), 17.8 µM (inactive) and 17.3 µM (inactive), respectively.
Regarding `COc1cc2c(cc1OC)CC1c3cc(OC)c(OC)cc3CCN1CC2` (stereo not given), the GI50 in experiment [1] is 0.101 µM (active); in experiment [2], > 100 µM (inactive); in experiment [3], > 100 µM (inactive); in experiment [4] it was > 100 µM (inactive); in experiment [5] it was > 100 µM (inactive); in experiment [6], 67 µM (inactive). Further, the GI50 in experiment [7] was > 100 µM (inactive); in experiment [8] it was > 100 µM (inactive); in experiment [9], 0.49 µM (active); in [10], > 100 µM; in experiment [11], > 100 µM (inactive); in [12] it was 95.1 µM (inactive). In addition, the GI50 in experiment [13] was 42.1 µM (inactive); in experiment [14], 52.8 µM (inactive); in experiment [15], > 100 µM (inactive).
Consider `CCOC(=O)c1cc(NC(=O)c2ccccc2)c(=O)n2c(cc3c(Cl)cccc32)c1O`, for which the GI50 in experiment [1], in experiment [2], in experiment [3], in experiment [4], in experiment [5] and in experiment [6] was > 100 µM (inactive) in each case. Besides, the GI50 is > 100 µM (inactive) in experiment [7]; > 100 µM (inactive) in experiment [8]; > 100 µM (inactive) in experiment [9]; > 100 µM in experiment [10]; 57.4 µM (inactive) in experiment [12]; > 100 µM (inactive) in experiment [13]. For the same compound, the GI50 in experiment [14], in experiment [15] and in experiment [16] was > 100 µM (inactive) in each case.
